# Values quoted from earlier work in paper PMC3591469 (Bioorganic & medicinal chemistry letters, 2011).
# Test system: recombinant Brd4 protein derived from bacteria
# Conditions: cell-permeable small molecule
compound,measurement,value
Cc1sc2c(c1C)C(c1ccc(Cl)cc1)=N[C@@H](CC(=O)OC(C)(C)C)c1nnc(C)n1-2 [JQ1],inhibition of recombinant Brd4,selective and potent inhibitor
